Data published in patent US20240025891A1 (Celgene Corporation, priority 2020, published 2024).

Test system: Onchocerca gutturosa adult male worms
Test: Onchocerciasis in vitro screening model Onchocerca gutturosa (worm motility score and MTT/formazan colorimetry)
Conditions: Onchocerca gutturosa, read-out: O. gutt Act class

Row | IC50 | SMILES
1 | 200 to 500 nM | FC(F)(F)c1ccnc(Nc2nc(-c3ccccn3)c(COCC3CC3)s2)c1 [Example 166, 5-((cyclopropyl-methoxy)methyl)-4-(pyridin-2-yl)-N-(4-(trifluoromethyl)pyridin-2-yl) thiazol-2-amine]
2 | 200 to 500 nM | O=C(NCC(F)(F)F)c1ccnc(Nc2nc(-c3ccccn3)c(CO)s2)c1 [Example 211, 2-(5-(hydroxy-methyl)-4-(pyridin-2-yl)thiazol-2-ylamino)-N-(2,2,2-trifluoroethyl) isonicotinamide]
3 | 500 to 5000 nM | Cc1ccnc(Nc2nc(-c3ncccn3)cs2)c1 [Example 107, N-(4-methylpyridin-2-yl)-4-(pyrimidin-2-yl)thiazol-2-amine]
4 | < 200 nM | CN(C)C(=O)c1sc(Nc2cc(C(F)(F)F)ccn2)nc1-c1ccccn1 [Example 209, N,N-dimethyl-4-(pyridin-2-yl)-2-(4-(trifluoromethyl)pyridin-2-ylamino) thiazole-5-carboxamide]
5 | < 200 nM | C[C@@H]1CN(Cc2sc(Nc3cc(C(F)(F)F)ccn3)nc2-c2ccccn2)C[C@H](C)O1 [Example 201, 5-(((2R,6S)-2,6-dimethyl-morpholino)methyl)-4-(pyridin-2-yl)-N-(4-(trifluoromethyl)pyridin-2-yl)thiazol-2-amine]
6 | < 200 nM | CN1CCN(c2ccc(Nc3nc(-c4ccccn4)cs3)nc2)CC1 [Example 131, N-(5-(4-methyl-piperazin-1-yl)pyridin-2-yl)-4-(pyridin-2-yl)thiazol-2-amine]
7 | 200 to 500 nM | O=C(NCCO)c1ccnc(Nc2nc(-c3ccccn3)cs2)c1 [Example 154, N-(2-hydroxyethyl)-2-(4-(pyridin-2-yl)thiazol-2-ylamino) isonicotinamide]
8 | < 200 nM | CC(=O)N(C)c1cc(C(F)(F)F)cnc1Nc1nc(-c2cc3n(n2)CCC3)cs1 [Example 108, N-(2-(4-(5,6-dihydro-4H-pyrrolo[1,2-b]pyrazol-2-yl)thiazol-2-ylamino)-5-(trifluoromethyl)pyridin-3-yl)-N-methylacetamide]
9 | 500 to 5000 nM | O=C(NCC1CC1)c1ccnc(Nc2nc(-c3ccccn3)cs2)c1 [Example 177, N-(cyclopropyl-methyl)-2-(4-(pyridin-2-yl)thiazol-2-ylamino) isonicotinamide]
10 | 500 to 5000 nM | Cc1cccnc1Nc1cc(-c2ccc(OC3CCOCC3)cn2)n[nH]1 [Example 237, 3-methyl-N-(3-(5-(tetrahydro-2H-pyran-4-yloxy)pyridin-2-yl)-1H-pyrazol-5-yl)pyridin-2-amine]
11 | 500 to 5000 nM | Cc1ccnc(Nc2cc(-c3ncccc3C)nn2-c2ccccc2)c1 [Example 235, 4-methyl-N-(3-(3-methylpyridin-2-yl)-1-phenyl-1H-pyrazol-5-yl)pyridin-2-amine]
12 | < 200 nM | CN(C)CCNC(=O)c1sc(Nc2cc(C(F)(F)F)ccn2)nc1-c1ccccn1 [Example 208, N-(2-(dimethylamino)ethyl)-4-(pyridin-2-yl)-2-(4-(trifluoro-methyl)pyridin-2-ylamino) thiazole-5-carboxamide]
13 | 200 to 500 nM | O=C(NCC(F)(F)F)c1ccnc(Nc2nc(-c3ccccn3)cs2)c1 [Example 141, 2-(4-(pyridin-2-yl)thiazol-2-ylamino)-N-(2,2,2-trifluoroethyl) isonicotinamide]
14 | 500 to 5000 nM | N#Cc1sc(Nc2cc(C(F)(F)F)ccn2)nc1-c1ccccn1 [Example 189, 4-(pyridin-2-yl)-2-(4-(trifluoromethyl)pyridin-2-ylamino) thiazole-5-carbonitrile]
15 | < 200 nM | C[C@@H]1CN(C(=O)c2sc(Nc3cc(C(F)(F)F)ccn3)nc2-c2ccccn2)C[C@H](C)O1 [Example 187, ((2S,6R)-2,6-dimethyl-morpholino) (4-(pyridin-2-yl)-2-(4-(trifluoromethyl)pyridin-2-ylamino)thiazol-5-yl)methanone]
16 | < 200 nM | CN(C)C(=O)C1CCCN(c2ccc(Nc3nc(-c4ccccn4)cs3)nc2)C1 (centres unmarked) [Example 158, N,N-dimethyl-1-(6-(4-(pyridin-2-yl)thiazol-2-ylamino)pyridin-3-yl)piperidine-3-carboxamide]
17 | 200 to 500 nM | O=C(c1sc(Nc2cc(C(F)(F)F)ccn2)nc1-c1ccccn1)N1CCN2CCCC2C1 (centres unmarked) [Example 192, (hexahydro-pyrrolo [1,2-a]pyrazin-2(1H)-yl)(4-(pyridin-2-yl)-2-(4-(trifluoromethyl)pyridin-2-ylamino)thiazol-5-yl)methanone]
18 | 500 to 5000 nM | O=C(NCC1CCOCC1)c1sc(Nc2cc(C(F)(F)F)ccn2)nc1-c1ccccn1 [Example 203, 4-(pyridin-2-yl)-N-((tetrahydro-2H-pyran-4-yl)methyl)-2-(4-(trifluoromethyl)pyridin-2-ylamino) thiazole-5-carboxamide]
19 | 500 to 5000 nM | CN1CCN(C(=O)c2sc(Nc3cc(C(F)(F)F)ccn3)nc2-c2ccccn2)CC1 [Example 191, (4-methylpiperazin-1-yl)(4-(pyridin-2-yl)-2-(4-(trifluoromethyl)pyridin-2-ylamino)thiazol-5-yl)methanone]
20 | 500 to 5000 nM | O=C1CN(C(=O)c2ccnc(Nc3nc(-c4ccccn4)cs3)c2)CCN1 [Example 149, 4-(2-(4-(pyridin-2-yl)thiazol-2-ylamino)isonicotinoyl) piperazin-2-one]
21 | < 200 nM | FC(F)(F)c1ccnc(Nc2nc(-c3ccccn3)c(CN3CCCCC3)s2)c1 [Example 164, 5-(piperidin-1-ylmethyl)-4-(pyridin-2-yl)-N-(4-(trifluoromethyl)pyridin-2-yl)thiazol-2-amine]
22 | 200 to 500 nM | C[C@@H](CO)NC(=O)c1ccnc(Nc2nc(-c3ccccn3)cs2)c1 [Example 148, (S)-N-(1-hydroxy-propan-2-yl)-2-(4-(pyridin-2-yl)thiazol-2-ylamino) isonicotinamide]
23 | < 200 nM | O=C(NC1CCCC1)c1ccnc(Nc2nc(-c3ccccn3)cs2)c1 [Example 147, N-cyclopentyl-2-(4-(pyridin-2-yl)thiazol-2-ylamino) isonicotinamide]

Row | SMILES | IC50
24 | CCOc1ccc(-c2csc(Nc3cc(C)ccn3)n2)nc1 [Example 91, 4-(5-ethoxypyridin-2-yl)-N-(4-methylpyridin-2-yl)thiazol-2-amine] | < 200 nM
25 | CCOc1ccc(-c2csc(Nc3ncccc3C3CC3)n2)nc1 [Example 83, N-(3-cyclopropylpyridin-2-yl)-4-(5-ethoxypyridin-2-yl)thiazol-2-amine] | 200 to 500 nM
26 | c1ccc(-c2csc(Nc3cc(-c4cccnn4)ccn3)n2)nc1 [Example 169, N-(4-(pyridazin-3-yl)pyridin-2-yl)-4-(pyridin-2-yl)thiazol-2-amine] | < 200 nM
27 | c1ccc(-c2csc(Nc3cc(-c4cccc5ccccc45)ccn3)n2)nc1 [Example 175, N-(4-(naphthalen-1-yl)pyridin-2-yl)-4-(pyridin-2-yl)thiazol-2-amine] | < 200 nM
28 | Cc1ccnc(Nc2nc(-c3cc(C)ccn3)cs2)c1 [Example 220, N,4-bis(4-methylpyridin-2-yl)thiazol-2-amine] | < 200 nM
29 | CCc1sc(Nc2cc(C)ccn2)nc1-c1ccccn1 [Example 184, 5-ethyl-N-(4-methylpyridin-2-yl)-4-(pyridin-2-yl)thiazol-2-amine] | < 200 nM
30 | Cc1ccnc(Nc2nc(-c3ccc(Cl)cn3)cs2)c1 [Example 89, 4-(5-chloropyridin-2-yl)-N-(4-methylpyridin-2-yl)thiazol-2-amine] | 200 to 500 nM
31 | Cc1cnc(Nc2nc(-c3ccccn3)cs2)cc1C(F)(F)F [Example 129, N-(5-methyl-4-(trifluoro-methyl)pyridin-2-yl)-4-(pyridin-2-yl)thiazol-2-amine] | < 200 nM
32 | Cc1ccnc(-c2csc(Nc3ncccc3C)n2)c1 [Example 222, N-(3-methylpyridin-2-yl)-4-(4-methylpyridin-2-yl)thiazol-2-amine] | 500 to 5000 nM
33 | Cc1ccnc(Nc2nc(-c3ccccn3)c(CCOC3CCC3)s2)c1 [Example 180, 5-(2-cyclobutoxy-ethyl)-N-(4-methylpyridin-2-yl)-4-(pyridin-2-yl)thiazol-2-amine] | < 200 nM
34 | Cc1ccnc(Nc2nc(-c3cc(OC4CN(C)C4)ccn3)cs2)c1 [Example 98, 4-(4-(1-methylazetidin-3-yloxy)pyridin-2-yl)-N-(4-methylpyridin-2-yl)thiazol-2-amine] | < 200 nM
35 | Cc1cccnc1-c1csc(Nc2cc(-c3ccccc3)ccn2)n1 [Example 100, 4-(3-methylpyridin-2-yl)-N-(4-phenylpyridin-2-yl)thiazol-2-amine] | < 200 nM
36 | CCOc1ccc(-c2csc(Nc3nc(C)ccc3C)n2)nc1 [Example 86, N-(3,6-dimethylpyridin-2-yl)-4-(5-ethoxypyridin-2-yl)thiazol-2-amine] | < 200 nM
37 | CCOc1ccc(-c2csc(Nc3ccc(C)cn3)n2)nc1 [Example 81, 4-(5-ethoxypyridin-2-yl)-N-(5-methylpyridin-2-yl)thiazol-2-amine] | < 200 nM
38 | CCOc1ccc(-c2csc(Nc3ncc(C)cc3C)n2)nc1 [Example 88, N-(3,5-dimethylpyridin-2-yl)-4-(5-ethoxypyridin-2-yl)thiazol-2-amine] | < 200 nM
39 | COc1cccnc1-c1csc(Nc2cc(C)ccn2)n1 [Example 7] | 500 to 5000 nM
40 | Cc1ccnc(Nc2nc(-c3ccccn3)c(C)s2)c1 [Example 132, 5-methyl-N-(4-methyl-pyridin-2-yl)-4-(pyridin-2-yl)thiazol-2-amine] | 200 to 500 nM
41 | Cc1cc(C(F)(F)F)cnc1Nc1nc(-c2cc3c(cn2)N(C)CC3)cs1 [Example 97, 4-(1-methyl-2,3-dihydro-1H-pyrrolo[2,3-c]pyridin-5-yl)-N-(3-methyl-5-(trifluoromethyl)pyridin-2-yl)thiazol-2-amine] | < 200 nM
42 | COc1ccc(Nc2nc(-c3ccccn3)cs2)nc1 [Example 218, N-(5-methoxypyridin-2-yl)-4-(pyridin-2-yl)thiazol-2-amine] | 200 to 500 nM
43 | c1ccc(-c2csc(Nc3cc4[nH]ccc4cn3)n2)nc1 [Example 136, 4-(pyridin-2-yl)-N-(1H-pyrrolo [3,2-c]pyridin-6-yl)thiazol-2-amine] | < 200 nM
44 | O=C(NC1CC1)c1ccnc(Nc2nc(-c3ccccn3)cs2)c1 [Example 170, N-cyclopropyl-2-(4-(pyridin-2-yl)thiazol-2-ylamino) isonicotinamide] | < 200 nM
